What all share (format): cell-based
One test has as its system H1975 cells. Kind of test: Cell proliferation and growth inhibition assay (CCK-8) in H1975. The following applies: Homo sapiens, NCI-H1975, 72 h, treated with test compounds for 72 hrs, CCK-8 viability, read-out: EGFR IC50 in H1975. The method, boiled down:
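Cells seeded at 30,000 (MV-4-11, IMDM) or 3,000 (H1975, RPMI 1640) per well, left 24 h, then compound-treated 72 h at 37 °C, 5% CO2, 10% FBS. Viability read by CCK-8 (1–4 h) at OD450. IC50 from sigmoidal dose-response nonlinear regression.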

The next test deals with KM12-luc cells. Kind of test: Cell proliferation and growth inhibition assay (CCK-8) in KM12-luc. To be noted: KM12-Luc, 72 h, KM12-luc cells, treated with test compounds for 72 hrs, CCK-8 viability; read-out: NTRK IC50 in KM12-luc. The gist of the method: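 Cells were grown at 37 °C, 5% CO2 with 10% FBS: MV-4-11 in IMDM, H1975 in RPMI 1640, KM12-luc in DMEM. Viability was read by CCK-8 (1-4 hrs reagent incubation, absorbance at OD450). IC50 came from a non-linear sigmoidal dose-response fit.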

Another test relates to MV-4-11 (AML) cells. Kind of test: Cell proliferation and growth inhibition assay (CCK-8) in MV-4-11. The following applies: Homo sapiens, MV4-11; MV-4-11 cells, treated with test compounds for 72 hrs, CCK-8 viability. How it is done:
MV-4-11 and H1975 cells were obtained from the American Type Culture Collection and KM12-luc cells were obtained from JCRB Cell Bank. All cell lines were maintained at 37° C. with 5% C02, in media supplemented with 10% fetal bovine serum and penicillin (100 units/mL) and streptomycin (100 μg/mL). MV-4-11 cells were maintained in Iscove's Modified Dubecco's Medium, H1975 cells were cultured with RPMI 1640 media, and KM12-luc cells were maintained in Dulbecco's Modification of Eagle's Medium. CCK-8 reagent was obtained from Yeasen.
Cell proliferation was assessed by CCK-8 assay (Yeasen) per the manufacturer's instructions. The MV-4-11 (AML), H1975, and KM12-luc cells were seeded at 30,000, 3,000 and 2,500 cells per well onto 96-well plates, and after a 24 h incubation, the cells were treated with test compounds for 72 hrs. Cell viability was assayed by incubating the cells with CCK-8 reagent for 1-4 hrs. Absorbance was measured at OD450 using the Beckman DTX880. The data was calculated using GraphPad Prism version 6.01. The IC50 values were fitted using a non-linear regression model with a sigmoidal dose response.

A value given as a limit tells only on which side of the number the result lay.

As a reminder, the IC50 is the concentration that inhibits the measured activity by half. In the case of `CCC(=O)Nc1cccc(Nc2ncc(Cl)c(Nc3ccc(C4CCCN(C)C4)cc3OC)n2)c1` (stereo not drawn) [Compound 166, N-(3-((5-chloro-4-((2-methoxy-4-(1-methylpiperidin-3-yl)phenyl)amino)pyrimidin-2-yl)amino)phenyl)propionamide], the IC50 with H1975 cells is 0.691 µM; with KM12-luc cells, 0.0395 µM; in the test on MV-4-11 (AML) cells, 0.0968 µM.
Taken in the same sequence, the figures for `CCC(=O)Nc1cccc(Nc2ncc(C(F)(F)F)c(Nc3ccc(N4CCN(C(C)=O)CC4)cc3OC)n2)c1` [Compound 169, N-(3-((4-((4-(4-acetylpiperazin-1-yl)-2-methoxyphenyl)amino)-5-(trifluoromethyl)pyrimidin-2-yl)amino)phenyl)propionamide] were 0.285 µM, 0.0438 µM and 0.0259 µM.
Taken in the same sequence, the figures for `COc1cnc(Nc2ccc(OCCN(C)C)c(NC(C)=O)c2)nc1-c1c[nH]c2c(C)cccc12` [Compound 284, N-(2-(2-(dimethylamino)ethoxy)-5-((5-methoxy-4-(7-methyl-1H-indol-3-yl)pyrimidin-2-yl)amino)phenyl)acetamide] were 1.03 µM, 0.015 µM and 0.0638 µM.
Taken in the same sequence, the figures for `CCN(CCN(C)C)c1ccc(Nc2ncc(C(F)(F)F)c(-c3c[nH]c4cccc(F)c34)n2)cc1N` [Compound 319, N^1-(2-(dimethylamino)ethyl)-N^1-ethyl-N^4-(4-(4-fluoro-1H-indol-3-yl)-5-(trifluoromethyl)pyrimidin-2-yl)benzene-1,2,4-triamine] were 0.772 µM, 0.0191 µM and 0.0297 µM.
`CC(=O)Nc1cc(Nc2ncc(C(F)(F)F)c(-c3c[nH]c4c(F)cccc34)n2)ccc1N(C)CCN(C)C` [Compound 334, N-(2-((2-(dimethylamino)ethyl)(methyl)amino)-5-((4-(7-fluoro-1H-indol-3-yl)-5-(trifluoromethyl)pyrimidin-2-yl)amino)phenyl)acetamide]: the IC50 amounted to 0.0921 µM in the test with H1975 cells, 0.003 µM in the test with KM12-luc cells and 0.0034 µM with MV-4-11 (AML) cells.
The like results for `CN(C)CCN(C)c1ccc(Nc2ncc(C(F)(F)F)c(-c3c[nH]c4c(F)cccc34)n2)cc1N` [Compound 335, N^1-(2-(dimethylamino)ethyl)-N^1-methyl-N^4-(4-(7-fluoro-1H-indol-3-yl)-5-(trifluoromethyl)pyrimidin-2-yl)benzene-1,2,4-triamine] were, in that order, 0.0754 µM, 0.0061 µM and 0.0031 µM.
Taken in the same sequence, the figures for `CCN(CCN(C)C)c1ccc(Nc2ncc(C(F)(F)F)c(-c3c[nH]c4c(F)cccc34)n2)cc1N` [Compound 337, N^1-(2-(dimethylamino)ethyl)-N^1-ethyl-N^4-(4-(7-fluoro-1H-indol-3-yl)-5-(trifluoromethyl)pyrimidin-2-yl)benzene-1,2,4-triamine] were 0.366 µM, 0.0104 µM and 0.0111 µM.
Taken in the same sequence, the figures for `CC(=O)Nc1cc(Nc2ncc(C(F)(F)F)c(-c3c[nH]c4c(F)cccc34)n2)ccc1OCCN(C)C` [Compound 343, N-(2-(2-(dimethylamino)ethoxy)-5-((4-(7-fluoro-1H-indol-3-yl)-5-(trifluoromethyl)pyrimidin-2-yl)amino)phenyl)acetamide] were 0.0773 µM, 0.0043 µM and 0.0026 µM.
With `CC(=O)Nc1cc(Nc2ncc(C(F)(F)F)c(-c3c[nH]c4c(C)cccc34)n2)ccc1N(C)CCN(C)C` [Compound 358, N-(2-((2-(dimethylamino)ethyl)(methyl)amino)-5-((4-(7-methyl-1H-indol-3-yl)-5-(trifluoromethyl)pyrimidin-2-yl)amino)phenyl)acetamide], the half-maximal inhibitory concentration (IC50) worked out at 0.047 µM in the test with H1975 cells, 0.0031 µM in the test with KM12-luc cells and 0.0044 µM in the test on MV-4-11 (AML) cells.
As for `Cc1cccc2c(-c3nc(Nc4ccc(N(C)CCN(C)C)c(N)c4)ncc3C(F)(F)F)c[nH]c12` [Compound 359, N^1-(2-(dimethylamino)ethyl)-N^1-methyl-N^4-(4-(7-methyl-1H-indol-3-yl)-5-(trifluoromethyl)pyrimidin-2-yl)benzene-1,2,4-triamine], the half-inhibitory concentration (IC50) came out at 0.12 µM in the test on H1975 cells, 0.0055 µM in the test on KM12-luc cells and 0.0059 µM with MV-4-11 (AML) cells.
`CC(=O)Nc1cc(Nc2ncc(C(F)(F)F)c(-c3c[nH]c4c(C)cccc34)n2)ccc1OCCN(C)C` [Compound 365, N-(2-(2-(dimethylamino)ethoxy)-5-((4-(7-methy-1H-indol-3-yl)-5-(trifluoromethyl)pyrimidin-2-yl)amino)phenyl)acetamide]: the values for the IC50 with H1975 cells, with KM12-luc cells and in the test with MV-4-11 (AML) cells were 0.0683 µM, 0.0043 µM and 0.0044 µM, respectively.
Taken in the same sequence, the figures for `COc1cccc2c(-c3nc(Nc4ccc(N(C)CCN(C)C)c(NC(C)=O)c4)ncc3C(F)(F)F)c[nH]c12` [Compound 374, N-(2-((2-(dimethylamino)ethyl)(methyl)amino)-5-((4-(7-methoxy-1H-indol-3-yl)-5-(trifluoromethyl)pyrimidin-2-yl)amino)phenyl)acetamide] were 0.0525 µM, 0.0037 µM and 0.0053 µM.
With `COc1cccc2c(-c3nc(Nc4ccc(N(C)CCN(C)C)c(N)c4)ncc3C(F)(F)F)c[nH]c12` [Compound 375, N^1-(2-(dimethylamino)ethyl)-N^4-(4-(7-methoxy-1H-indol-3-yl)-5-(trifluoromethyl)pyrimidin-2-yl)-N^1-methylbenzene-1,2,4-triamine], the IC50 with H1975 cells amounted to 0.152 µM; in the test on KM12-luc cells, 0.0041 µM; in the test with MV-4-11 (AML) cells, 0.0042 µM.
Regarding `COc1cccc2c(-c3nc(Nc4ccc(OCCN(C)C)c(NC(C)=O)c4)ncc3C(F)(F)F)c[nH]c12` [Compound 381, N-(2-(2-(dimethylamino)ethoxy)-5-((4-(7-methoxy-1H-indol-3-yl)-5-(trifluoromethyl)pyrimidin-2-yl)amino)phenyl)acetamide], the 50% inhibitory concentration (IC50) worked out at 0.168 µM with H1975 cells, 0.0072 µM with KM12-luc cells and 0.0052 µM with MV-4-11 (AML) cells.
On to `CC(=O)Nc1cc(Nc2ncc(Cl)c(-c3cn(C)c4ccccc34)n2)ccc1N1CCC(N(C)C)C1` (stereo not drawn) [Compound 402, N-(5-((5-chloro-4-(1-methyl-1H-indol-3-yl)pyrimidin-2-yl)amino)-2-(3-(dimethylamino)pyrrolidin-1-yl)phenyl)acetamide], for which the values for the half-maximal inhibitory concentration (IC50) in the test on H1975 cells, in the test on KM12-luc cells and with MV-4-11 (AML) cells were 1.21 µM, 0.0274 µM and 0.0642 µM, respectively.
The like results for `Cc1cccc2c(-c3nc(Nc4ccc(N(C)CCN(C)C)c(N)c4)ncc3Cl)c[nH]c12` [Compound 422, N^4-(5-chloro-4-(7-methyl-1H-indol-3-yl)pyrimidin-2-yl)-N^1-(2-(dimethylamino)ethyl)-N^1-methylbenzene-1,2,4-triamine] were, in that order, 0.288 µM, 0.0052 µM and 0.0052 µM.
On to `CC(=O)Nc1cc(Nc2ncc(Cl)c(-c3c[nH]c4ccccc34)n2)ccc1N1CCC(N(C)C)C1` (stereo not drawn) [Compound 444, N-(5-((5-chloro-4-(1H-indol-3-yl)pyrimidin-2-yl)amino)-2-(3-(dimethylamino)pyrrolidin-1-yl)phenyl)acetamide], for which the IC50 in the test on H1975 cells was 0.299 µM; with KM12-luc cells it was 0.0055 µM; in the test with MV-4-11 (AML) cells, 0.0029 µM.
Take `CC(=O)Nc1cc(Nc2ncc(Cl)c(-c3cnc(C(C)C)n3C)n2)ccc1N(C)CCN(C)C` [Compound 452, N-(5-((5-chloro-4-(2-isopropyl-1-methyl-1H-imidazol-5-yl)pyrimidin-2-yl)amino)-2-((2-(dimethylamino)ethyl)(methyl)amino)phenyl)acetamide]: the IC50 in the test with H1975 cells was greater than 20 µM; with MV-4-11 (AML) cells, greater than 1 µM.
As for `COc1cccc2c(-c3nc(Nc4ccc(N5CC[C@H](N(C)C)C5)c(NC(C)=O)c4)ncc3C(F)(F)F)cn(C)c12` [Compound S-389, (S)—N-(2-(3-(dimethylamino)pyrrolidin-1-yl)-5-((4-(7-methoxy-1-methyl-1H-indol-3-yl)-5-(trifluoromethyl)pyrimidin-2-yl)amino)phenyl)acetamide], the IC50 in the test on H1975 cells is 0.898 µM; with KM12-luc cells, 0.0235 µM.
Regarding `COc1cccc2c(-c3nc(Nc4ccc(N5CC[C@H](N(C)C)C5)c(NC(C)=O)c4)ncc3Cl)cn(C)c12` [Compound S-435, (S)—N-(5-(5-chloro-4-(7-methoxy-1-methyl-1H-indol-3-yl)pyrimidin-2-ylamino)-2-(3-(dimethylamino)pyrrolidin-1-yl)phenyl)acetamide], the 50% inhibitory concentration (IC50) in the test on H1975 cells was found to be 1.56 µM; in the test on KM12-luc cells, 0.0481 µM.
